Experimental data reported in US10035814B2, “Guanine analogs as telomerase substrates and telomere length affectors” (Geron Corporation, priority 2011, dated 2018).
pEC50, pIC50: −log10 of the molar value. Values joined by “and” are separate entries in the source; they are usually repeats but may differ in a detail not shown here. Identical values can stand only once.

Experiments:
[1] = target: telomerase in HT3 cells (Homo sapiens (Human), UniProt O14746); assay: Ex vivo TRAP assay in HT3 cells; type: cell-based; details: for pEC50: Table 8, assay not given, repeat determinations, values coincide with Ex Vivo TRAP, read-out: EC50
Chain of telomerase in HT3 cells (O14746 whole entry): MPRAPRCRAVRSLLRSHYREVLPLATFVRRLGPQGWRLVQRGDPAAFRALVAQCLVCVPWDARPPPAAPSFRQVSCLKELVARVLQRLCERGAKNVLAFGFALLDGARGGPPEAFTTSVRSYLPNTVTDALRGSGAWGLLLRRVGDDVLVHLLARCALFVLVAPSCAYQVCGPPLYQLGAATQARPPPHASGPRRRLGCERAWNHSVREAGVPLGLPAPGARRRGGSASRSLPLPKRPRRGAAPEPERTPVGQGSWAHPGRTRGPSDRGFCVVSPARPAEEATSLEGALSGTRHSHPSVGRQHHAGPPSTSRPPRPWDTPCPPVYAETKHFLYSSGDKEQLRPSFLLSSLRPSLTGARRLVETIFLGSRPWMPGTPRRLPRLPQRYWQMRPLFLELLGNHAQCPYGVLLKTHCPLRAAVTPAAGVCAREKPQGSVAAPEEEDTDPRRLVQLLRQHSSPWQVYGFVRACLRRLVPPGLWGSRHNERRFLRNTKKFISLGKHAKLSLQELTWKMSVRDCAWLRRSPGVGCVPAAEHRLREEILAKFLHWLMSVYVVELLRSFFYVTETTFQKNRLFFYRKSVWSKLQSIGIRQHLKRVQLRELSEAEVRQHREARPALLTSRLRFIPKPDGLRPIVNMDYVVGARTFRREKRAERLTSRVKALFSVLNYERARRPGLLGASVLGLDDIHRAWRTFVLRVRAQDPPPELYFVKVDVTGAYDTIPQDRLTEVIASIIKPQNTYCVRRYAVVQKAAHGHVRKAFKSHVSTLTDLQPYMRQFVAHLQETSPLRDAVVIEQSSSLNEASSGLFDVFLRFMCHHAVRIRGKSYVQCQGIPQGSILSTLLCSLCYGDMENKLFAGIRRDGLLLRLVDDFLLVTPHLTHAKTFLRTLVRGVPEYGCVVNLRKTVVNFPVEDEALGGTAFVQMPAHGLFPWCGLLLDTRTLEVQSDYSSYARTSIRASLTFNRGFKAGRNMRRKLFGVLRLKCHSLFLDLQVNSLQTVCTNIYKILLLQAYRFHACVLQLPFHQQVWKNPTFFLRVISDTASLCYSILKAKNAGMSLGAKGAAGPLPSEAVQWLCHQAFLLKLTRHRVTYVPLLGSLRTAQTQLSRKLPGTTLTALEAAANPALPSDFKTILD
Chain of telomerase in HT3 cells (O60832 whole entry partner): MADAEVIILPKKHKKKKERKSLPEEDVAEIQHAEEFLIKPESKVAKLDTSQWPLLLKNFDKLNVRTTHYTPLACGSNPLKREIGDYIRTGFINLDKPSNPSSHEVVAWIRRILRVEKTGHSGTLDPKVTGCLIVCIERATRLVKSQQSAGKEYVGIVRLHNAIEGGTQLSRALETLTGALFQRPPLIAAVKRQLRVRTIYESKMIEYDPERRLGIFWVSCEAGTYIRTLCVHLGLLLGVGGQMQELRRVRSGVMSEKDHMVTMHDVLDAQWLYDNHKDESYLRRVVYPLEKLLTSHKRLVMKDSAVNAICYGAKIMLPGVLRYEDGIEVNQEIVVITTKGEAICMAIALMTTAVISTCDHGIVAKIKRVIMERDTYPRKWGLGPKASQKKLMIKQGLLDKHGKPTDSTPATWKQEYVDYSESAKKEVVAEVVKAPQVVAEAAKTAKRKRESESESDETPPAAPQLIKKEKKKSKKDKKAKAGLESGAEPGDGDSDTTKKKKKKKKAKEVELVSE
Chain of telomerase in HT3 cells (Q9NX24 whole entry partner): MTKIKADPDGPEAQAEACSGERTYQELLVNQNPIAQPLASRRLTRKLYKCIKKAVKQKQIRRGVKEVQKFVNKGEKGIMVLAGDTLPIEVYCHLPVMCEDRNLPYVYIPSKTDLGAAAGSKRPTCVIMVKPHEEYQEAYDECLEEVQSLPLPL
Chain of telomerase in HT3 cells (Q9NPE3 whole entry partner): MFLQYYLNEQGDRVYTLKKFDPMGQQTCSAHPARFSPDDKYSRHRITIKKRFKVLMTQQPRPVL
Chain of telomerase in HT3 cells (Q9NY12 whole entry partner): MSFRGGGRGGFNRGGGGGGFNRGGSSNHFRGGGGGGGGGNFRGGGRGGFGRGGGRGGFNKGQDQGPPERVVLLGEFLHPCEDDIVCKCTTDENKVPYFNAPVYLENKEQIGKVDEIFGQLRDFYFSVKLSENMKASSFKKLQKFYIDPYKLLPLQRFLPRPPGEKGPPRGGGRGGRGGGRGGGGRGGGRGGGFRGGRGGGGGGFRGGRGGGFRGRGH
Chain of telomerase in HT3 cells (Q9BUR4 whole entry partner): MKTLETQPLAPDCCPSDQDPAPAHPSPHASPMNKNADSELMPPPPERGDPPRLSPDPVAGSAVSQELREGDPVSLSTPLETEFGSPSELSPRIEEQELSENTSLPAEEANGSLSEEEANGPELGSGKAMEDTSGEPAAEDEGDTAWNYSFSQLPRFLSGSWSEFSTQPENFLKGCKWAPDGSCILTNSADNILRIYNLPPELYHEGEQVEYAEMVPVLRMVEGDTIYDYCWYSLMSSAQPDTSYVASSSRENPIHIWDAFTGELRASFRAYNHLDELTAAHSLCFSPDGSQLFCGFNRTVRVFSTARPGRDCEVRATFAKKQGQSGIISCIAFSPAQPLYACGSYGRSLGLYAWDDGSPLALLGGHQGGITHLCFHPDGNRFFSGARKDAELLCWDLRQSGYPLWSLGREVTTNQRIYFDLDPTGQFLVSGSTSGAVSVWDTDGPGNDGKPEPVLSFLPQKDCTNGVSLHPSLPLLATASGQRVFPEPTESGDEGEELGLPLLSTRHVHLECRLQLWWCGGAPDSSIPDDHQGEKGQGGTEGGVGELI
Procedure: HT3 cells were treated for three days with increasing concentrations of PMPG-diisopropyloxy ester ranging from 0.2 μM to 20 μM. Cells (HT3 RPMI+10% PBS) were incubated with compound for 24 hr after which PSTS primer (phosphorothioate-d(AATCCGTCGAGCAGAGTT (SEQ ID NO: 6) containing a 5′ Cy-5 label) (7.5 μM) and fresh compound are added for an additional 24 hr. Cells were lysed and endogenous telomerase inactivated by heating (15 min, 75° C.). Products were amplified by 30 cycles of PCR under TRAP conditions set forth above and quantified. The results of two independent experiments are shown in Table 4.
HT3 cells were treated for three days with increasing concentrations of one or more of the indicated compounds ranging from 0.2 μM to 20 μM. Cells (HT3 RPMI+10% FBS) were incubated with compound for 24 hours, after which PSTS primer (phosphorothioate-d AATCCGTCGAGCAGAGTT (SEQ ID NO: 6) containing a 5′ Cy-5 label) (7.5 μM) and fresh compound were added for an additional 24 hours. Cells were lysed and endogenous telomerase inactivated by heating (15 minutes, 75° C.). Products were amplified by 30 cycles of PCR under TRAP conditions set forth in Kim et al., Science 266:2011, […] (which reference is incorporated herein in its entirety) and quantified.

[2] = test system: A549 cells; assay: Telomere repeat fragment (TRF) assay using A549 cells; type: cell-based; details: approximately 70 population doublings
Procedure: (§1) Approximately 1-2 μg of genomic DNA from each cell line or tissue was digested by Hinf/RsaI for 2 hours at 37° C. Following DNA digestion, the genomic DNA fragments were separated on a 0.8% agarose gel and transferred to a nylon membrane by blotting. All membrane hybridization and detection reagents were provided in the TeloTAGGG Telomere Length Assay kit (Roche Diagnostics, Mannheim Germany). The blotted membranes were hybridized with digoxigenin (DIG)-labeled PNA probe specific for telomeric repeats, followed by incubation with anti-DIG-antibody-alkaline phosphatase according to the manufacturer's instructions. Alkaline phosphatase was quantified using the chemiluminescent substrate. Telomere lengths were calculated according to the manufacturer's instruction.
Lane 1 is a ladder from 21.2 kb to 1.9 kb. Lanes 2 and 3 have 10 μM and 5 μM, respectively, of PMPG free acid (ID#142693). Lanes 4 to 6 have 10 μM, 5 μM, and 2.5 μM, respectively, of PMPG prodrug (ID#142715). Lane 7 has 2 μM of Imetelstat (163 L). Lane 8 has 2 μM of a mismatch. Lanes 9 and 10 have 20 μM and 10 μM, respectively, of PMIBeG free acid [(((2-((2-amino-6-oxo-1H-purin-9(6H)-yl)methyl)allyl)oxy)methyl)phosphonic acid] (ID#142811). Indicated amounts each compound were added to A549 cells. After approximately 70 population doublings, the cells were harvested and telomere lengths determined using TRF. The estimated average telomere lengths were: (1) MM/mismatch control: 7 kb; (2) Imetelstat/163 L: 4.3 kb; (3) PMPG prodrug (10 μM and 5 μM): 4 kb; (4) PMPG free acid (5 μM and 10 μM): 4 kb; (5) PMIBeG prodrug (50 μM): 4.3 kb; (6) PMIBeG free acid (20 μM): 5 kb.

[3] = Cytotoxicity in cell culture (cells not named); type: cell-based
[4] = test system: Caki-1 cells; assay: Caki-1 tumor growth in SCID hairless outbred (SHO) mice; type: in vivo; details: for tumor growth compared to vehicle control: 30 mg/kg intraperitoneal; for Intercept coefficient of linear transformed tumor growth curve / Slope coefficient of linear transformed tumor growth curve: linear mixed effects model, change versus vehicle
Procedure: Low-passage Caki-1 cells were injected subcutaneously into the flank of SCID hairless outbred (SHO) mice receiving 30 mg/kg of one of the following via intraperitoneal injection: vehicle (PBS with 0.4% Tween 20), Imetelstat (163 L), PMPG free acid (ID#142693), or PMPG prodrug (ID#142715). Calipers were used to measure tumor length and width bi-weekly, and tumor volume was calculated. Once a tumor had grown >50 mm^3, the animal was randomly entered into a study group, either control or treatment. Animals received 30 mg/kg compound via intraperitoneal injection for the duration of the study. The control vehicle was PBS with 0.4% Tween 20. Tumor volume was measured bi-weekly, and animals were sacrificed either when tumor size was >2000 mm^3 or at defined study completion date.
At the conclusion of the study, a linear transformation of the tumor growth curves was performed. The slope of the growth curves for each treatment group was derived by using a linear mixed effects model. The Y-intercept was used to confirm random tumor starting size at the time of animals entering into the study.

[5] = target: telomerase (Homo sapiens (Human), UniProt O14746); assay: Primer extension assay for telomerase activity; type: biochemical; details: prodrug itself, cell free
Chain of telomerase (O14746 whole entry): as the sequence (O14746 whole entry) above
Procedure: Purified human telomerase was incubated with d(TTAGGG)3 (SEQ ID NO: 1) and deoxy-nucleoside triphosphates for 90 minutes at 37° C. All reactions were done in the presence of 200 dTTP and 10 μM dATP (50,000 cpm/pmol a-^33P-dATP). Activity was determined by incubating affinity purified telomerase extract with 1 μM primer [d(TTAGGG)3] (SEQ ID NO: 1), 200 μM dTTP, 50 μM dGTP, 10 μM dATP, 10 μCi [α-^33P]dATP (2000-4000 Ci/mmol) in a buffer containing 50 mM (N-2-hydroxyethyl piperazine-N′-3 propanesulfonic acid)-NaOH pH 8.5, 1 mM MgCl2, 1 mM DTT, 5% glycerol, 0.5 mM EGTA and 100 mM KOAc in a final reaction volume of 40 μl. Primer extension products were analyzed on a 15% polyacrylamide gel containing 7 M urea. A characteristic telomerase ladder has multiple bands. If a compound is not a substrate then (TTAGGG)3TTA (21 nt) (SEQ ID NO: 2). If a compound is a chain terminator then (TTAGGG)3TTAG* (22 nt) (SEQ ID NO: 3).
Purified human telomerase was incubated with d(TTAGGG)3 (SEQ ID NO: 1) and deoxy-nucleoside triphosphates for 90 minutes at 37° C. All reactions were done in the presence of 200 dTTP and 10 μM dATP (50,000 cpm/pmol a-^33P-dATP). Activity was determined by incubating affinity purified telomerase extract with […] primer [d(TTAGGG)3] (SEQ ID NO: 1), […] [α-^33P]dATP (2000-4000 Ci/mmol) in a buffer containing 50 mM (N-2-hydroxyethyl piperazine-N′-3 propanesulfonic acid)-NaOH pH 8.5, 1 mM MgCl2, 1 mM DTT, 5% glycerol, 0.5 mM EGTA and 100 mM KOAc in a final reaction volume of 40 μl. Primer extension products were analyzed on a 15% polyacrylamide gel containing 7 M urea. A characteristic telomerase ladder has multiple bands. If a compound is not a substrate then (TTAGGG)3TTA (21 nt) (SEQ ID NO: 2). If a compound is a chain terminator then (TTAGGG)3TTAG* (22 nt) (SEQ ID NO: 3).

[6] = test system: immortal U87 cells; assay: Telomere repeat fragment (TRF) assay using immortal U87 cells; type: cell-based; details: concentration not given at the value, approximately 20 population doublings
Procedure: as §1
Telomere repeat fragment assays using immortal U87 cells were performed. 10 μM or 20 μM PMIBeG prodrug (ID#142820) or PMPG prodrug (ID#142715) were added to the cells. Imetelstat (163 L) was used as a reference and a mismatch was used as a negative control. After approximately 20 population doublings, the cells were harvested and telomere lengths determined using TRF. The estimated average lengths were: (1) mismatch control: 5 kb; (2) Imetelstat (163 L): 3.5 kb; (3) PMIBeG prodrug (ID#142820) at 20 μM: 4 kb; (4) PMIBeG prodrug (ID#142820) at 10 μM: 4.1 kb; (5) PMPG prodrug (ID#142715): 3.5 kb.

[7] = test system: RPE-64-tv cells; assay: Cytotoxicity in RPE-64-tv cells; type: cell-based
[8] = Day 10, 30 mg/kg intraperitoneal
[9] = Day 20, 30 mg/kg intraperitoneal
[10] = Day 30, 30 mg/kg intraperitoneal
[11] = Day 40, 30 mg/kg intraperitoneal
[12] = Day 50, 30 mg/kg intraperitoneal
[13] = Day 60, 30 mg/kg intraperitoneal

Compound	pEC50 [1]	estimated average telomere length ([2]; 10 μM and 5 μM)	tumor growth compared to vehicle control [4]	tumor volume [4, 8]	tumor volume as a percentage of the tumor volume of control vehicle mice [4, 8]	tumor volume [4, 9]	tumor volume as a percentage of the tumor volume of control vehicle mice [4, 9]	tumor volume [4, 10]	tumor volume as a percentage of the tumor volume of control vehicle mice [4, 10]	tumor volume [4, 11]	tumor volume as a percentage of the tumor volume of control vehicle mice [4, 11]	tumor volume [4, 12]	tumor volume as a percentage of the tumor volume of control vehicle mice [4, 12]	tumor volume [4, 13]	tumor volume as a percentage of the tumor volume of control vehicle mice [4, 13]	Intercept coefficient of linear transformed tumor growth curve [4]	Slope coefficient of linear transformed tumor growth curve [4]	estimated average telomere length [6]	other results
CC(Cn1cnc2c(=O)[nH]c(N)nc21)OCP(=O)(O)O (single isomer, unassigned) [ID#142693, R-(((Guanine-9-yl)propan-2-oxy)methyl) phosphonic acid]	4.93 and 5.60 and 5.82	4 kb	reduction in tumor growth	165.1 mm^3	91%	330.8 mm^3	83%	581.3 mm^3	78%	934.3 mm^3	75%	1407.2 mm^3	73%	2017.6 mm^3	71%	0.096	−0.027		cytotoxicity ([3]; 200 uM): acutely cytotoxic; cytotoxicity ([3]; therapeutic doses (10 μM and 20 μM)): minimal cytotoxicity
CC(C)OC(=O)OCOP(=O)(COC(C)Cn1cnc2c(=O)[nH]c(N)nc21)OCOC(=O)OC(C)C (single isomer, unassigned) [ID#142715]	5.96 and 5.92 and 5.51 and 6.09	4 kb		170.7 mm^3	94%	377.5 mm^3	95%	706.6 mm^3	95%	1186.6 mm^3	95%	1845.9 mm^3	95%	2713.0 mm^3	96%	−0.093	−0.001	3.5 kb	activity in the cell free telomerase assay [5]: inactive; pIC50 ([1]; HT3 cells, 0.2 μM to 20 μM, two independent experiments, read-out: Ex vivo Assay IC 50): 5.52 to 6.00 and 5.49 to 5.92
C=C(COCP(=O)(O)O)Cn1cnc2c(=O)[nH]c(N)nc21 [ID#142811, (((2-((2-amino-6-oxo-1H-purin-9(6H)-yl)methyl)allyl)oxy)methyl)phosphonic acid]																			estimated average telomere length ([2]; 20 μM): 5 kb; cytotoxicity compared with PMPG [7]: less cytotoxic than PMPG; effect on tissue culture ([7]; 200 μM): no effect on tissue culture
Imetelstat [reference compound]			reduction in tumor growth	146.0 mm^3	81%	293.5 mm^3	74%	517.0 mm^3	70%	832.2 mm^3	67%	1254.8 mm^3	65%	1800.7 mm^3	63%	−0.074	−0.032	3.5 kb	estimated average telomere length ([2]; 2 μM): 4.3 kb
